{
  "source": "the NIST ThermoML archive (doi:10.1021/je050443o)",
  "experiment": "wn = mass fraction of the nth substance listed",
  "conditions": "101.33 kPa, Liquid",
  "note": "Numbers after ± are expanded uncertainties.",
  "data": [
    {"smiles": "O=S(=O)(O)O", "note": "[sulfuric acid] + O", "values": [
      {"measurement": "mass density", "setting": "293.15 K, w1 = 0.1", "result": "1066.2 ± 1.2", "unit": "kg/m3"},
      {"measurement": "viscosity", "setting": "293.15 K, w1 = 0.1", "result": "1.231 ± 0.028", "unit": "mPa·s"},
      {"measurement": "mass density", "setting": "293.15 K, w1 = 0.2", "result": "1139.5 ± 1.3", "unit": "kg/m3"},
      {"measurement": "viscosity", "setting": "293.15 K, w1 = 0.2", "result": "1.55 ± 0.035", "unit": "mPa·s"},
      {"measurement": "mass density", "setting": "293.15 K, w1 = 0.3", "result": "1218.3 ± 1.4", "unit": "kg/m3"},
      {"measurement": "viscosity", "setting": "293.15 K, w1 = 0.3", "result": "2.009 ± 0.044", "unit": "mPa·s"},
      {"measurement": "mass density", "setting": "303.15 K, w1 = 0.1", "result": "1061.9 ± 1.2", "unit": "kg/m3"},
      {"measurement": "viscosity", "setting": "303.15 K, w1 = 0.1", "result": "0.9804 ± 0.023", "unit": "mPa·s"},
      {"measurement": "mass density", "setting": "303.15 K, w1 = 0.2", "result": "1133.3 ± 1.3", "unit": "kg/m3"},
      {"measurement": "viscosity", "setting": "303.15 K, w1 = 0.2", "result": "1.229 ± 0.028", "unit": "mPa·s"},
      {"measurement": "mass density", "setting": "303.15 K, w1 = 0.3", "result": "1211.7 ± 1.4", "unit": "kg/m3"},
      {"measurement": "viscosity", "setting": "303.15 K, w1 = 0.3", "result": "1.601 ± 0.036", "unit": "mPa·s"},
      {"measurement": "mass density", "setting": "313.15 K, w1 = 0.1", "result": "1056.8 ± 1.3", "unit": "kg/m3"},
      {"measurement": "viscosity", "setting": "313.15 K, w1 = 0.1", "result": "0.7896 ± 0.018", "unit": "mPa·s"},
      {"measurement": "mass density", "setting": "313.15 K, w1 = 0.2", "result": "1126.9 ± 1.3", "unit": "kg/m3"},
      {"measurement": "viscosity", "setting": "313.15 K, w1 = 0.2", "result": "0.9887 ± 0.023", "unit": "mPa·s"},
      {"measurement": "mass density", "setting": "313.15 K, w1 = 0.3", "result": "1204.3 ± 1.4", "unit": "kg/m3"},
      {"measurement": "viscosity", "setting": "313.15 K, w1 = 0.3", "result": "1.306 ± 0.029", "unit": "mPa·s"},
      {"measurement": "mass density", "setting": "323.15 K, w1 = 0.1", "result": "1051.8 ± 1.3", "unit": "kg/m3"},
      {"measurement": "viscosity", "setting": "323.15 K, w1 = 0.1", "result": "0.661 ± 0.016", "unit": "mPa·s"},
      {"measurement": "mass density", "setting": "323.15 K, w1 = 0.2", "result": "1121.1 ± 1.3", "unit": "kg/m3"},
      {"measurement": "viscosity", "setting": "323.15 K, w1 = 0.2", "result": "0.8311 ± 0.019", "unit": "mPa·s"},
      {"measurement": "mass density", "setting": "323.15 K, w1 = 0.3", "result": "1198 ± 2", "unit": "kg/m3"},
      {"measurement": "viscosity", "setting": "323.15 K, w1 = 0.3", "result": "1.1 ± 0.025", "unit": "mPa·s"},
      {"measurement": "mass density", "setting": "333.15 K, w1 = 0.1", "result": "1046.3 ± 1.3", "unit": "kg/m3"},
      {"measurement": "viscosity", "setting": "333.15 K, w1 = 0.1", "result": "0.5598 ± 0.014", "unit": "mPa·s"},
      {"measurement": "mass density", "setting": "333.15 K, w1 = 0.2", "result": "1115.3 ± 1.4", "unit": "kg/m3"},
      {"measurement": "viscosity", "setting": "333.15 K, w1 = 0.2", "result": "0.7105 ± 0.017", "unit": "mPa·s"},
      {"measurement": "mass density", "setting": "333.15 K, w1 = 0.3", "result": "1190.7 ± 1.4", "unit": "kg/m3"},
      {"measurement": "viscosity", "setting": "333.15 K, w1 = 0.3", "result": "0.9426 ± 0.022", "unit": "mPa·s"},
      {"measurement": "mass density", "setting": "343.15 K, w1 = 0.1", "result": "1039.6 ± 1.3", "unit": "kg/m3"},
      {"measurement": "viscosity", "setting": "343.15 K, w1 = 0.1", "result": "0.4902 ± 0.012", "unit": "mPa·s"},
      {"measurement": "mass density", "setting": "343.15 K, w1 = 0.2", "result": "1108.8 ± 1.4", "unit": "kg/m3"},
      {"measurement": "viscosity", "setting": "343.15 K, w1 = 0.2", "result": "0.6409 ± 0.015", "unit": "mPa·s"},
      {"measurement": "mass density", "setting": "343.15 K, w1 = 0.3", "result": "1184.2 ± 1.5", "unit": "kg/m3"},
      {"measurement": "viscosity", "setting": "343.15 K, w1 = 0.3", "result": "0.8467 ± 0.02", "unit": "mPa·s"}
    ]}
  ]
}
